Source: patent publication US20250084087A1, “BICYCLIC HETEROCYCLES AS MRGPRX2 ANTAGONISTS” (Incyte Corporation, priority 2023, published 2025)
pIC50: −log10 of the molar value.

Experiments:
Type in all cases: cell-based
MRGPRX2 [1] = target: T1, MRGPRX2 (Homo sapiens, UniProt Q96LB1); test: MRGPRX2 FLIPR calcium mobilization assay; design: host or cells: CHO-K1; details: CHO-K1 cells stably expressing human MRGPRX2; Ca2+ release; agonist Cortistatin-14 at EC80
T1 sequence (Q96LB1 1-330): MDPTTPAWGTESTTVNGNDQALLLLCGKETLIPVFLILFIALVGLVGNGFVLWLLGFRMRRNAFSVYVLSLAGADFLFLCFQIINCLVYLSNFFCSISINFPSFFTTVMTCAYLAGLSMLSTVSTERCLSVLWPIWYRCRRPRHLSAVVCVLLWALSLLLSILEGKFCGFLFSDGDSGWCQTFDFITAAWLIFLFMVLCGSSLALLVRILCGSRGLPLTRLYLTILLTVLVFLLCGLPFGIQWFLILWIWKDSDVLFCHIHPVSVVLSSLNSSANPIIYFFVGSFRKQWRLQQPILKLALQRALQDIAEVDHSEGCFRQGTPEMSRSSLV
Protocol: Example A. MRGPRX2 FLIPR Calcium Mobilization Assay
Chinese hamster ovary (CHO-K1) cells stably expressing human MRGPRX2 were purchased from Genescript (Piscataway, NJ). The cells were maintained in culture medium (Ham's F-12K) containing 10% (v/v) FBS, 200 μg/mL Zeocin, 100 units/mL penicillin G and 100 μg/mL streptomycin (Life Technologies, Carlsbad, CA). For the assay, the cells were harvested and resuspended with culture medium without Zeocin before plating at 8000 cells per well in 20 μL in 384-well black clear bottom cell culture plates (VWR, Radnor, PA). After 24 hour culture at 37° C. and 5% CO2, the cells were loaded with 20 μL/well of calcium dye (FLIPR Calcium 6 Assay Kit, Molecular Devices, San Jose, CA) diluted in loading buffer (1× Hank's Balanced Salt Solution (HBSS), 5 mM probenecid, 20 mM 4-(2-hydroxyethyl)-1-piperazineethanesulfonic acid (HEPES), pH 7.4, VWR, Radnor, PA) followed with 45 min. incubation at 37° C. and 40 min. at r.t. in the dark. Cells were then treated with the addition of 10 uL/well test compounds with a range of increasing concentrations diluted in the assay buffer (1×HBSS, 20 mM HEPES, pH 7.4, VWR, Radnor, PA) with FLIPR Penta (Molecular Devices. San Jose, CA) and incubated for 30 min. at r.t. Ca^2+ release was measured with FLIPR Penta with 10 seconds basal fluorescence measurement, then 12.5 μL of 5× agonist Cortistatin-14 (Tocris, Minneapolis, MN) at final concentration corresponding to the EC80 were added followed with continued fluorescence signal monitoring for an additional 110 seconds. The base line adjusted (median of first 10s base line) max value of the Relative Fluorescence Unit (RFU) was plotted against compound concentrations. Wells with no compound were served as the positive controls, and wells with high concentration of reference antagonist were used as negative controls. IC50 curves were globally fitted with 3- or 4-parameter Hill equation in a Genedata Screener (Genedata Basel, Switzerland).

MRGPRX2 [2] = target: T1, MRGPRX2; test: MRGPRX2 IP1 HTRF assay; design: host or cells: CHO-K1; details: CHO-K1 cells stably expressing human MRGPRX2; IP1 accumulation; agonist Cortistatin 14 1 μM
Outline: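 CHO-K1 cells stably expressing human MRGPRX2, preincubated with compound 1 h at 37 °C, then stimulated with 1 μM Cortistatin 14 for 1 h. IP1 measured by HTRF against standard curve, normalized to DMSO and reference antagonist controls; IC50 from 3- or 4-parameter Hill fit.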

MRGPRX2 [3] = target: T1, MRGPRX2; test: MRGPRX2 β-Arrestin recruitment assay (PathHunter); design: host or cells: CHO-K1 (PathHunter); details: PathHunter CHO-K1 MRGPRX2 β-Arrestin cell line; agonist Cortistatin 14 0.25 μM
Outline: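 CHO-K1 PathHunter cells co-expressing ProLink-tagged MRGPRX2 and enzyme-acceptor-tagged β-arrestin were preincubated with compound 1 h at 37° C., then stimulated with cortistatin-14 (0.25 μM final) for 90 min. Enzyme-complementation luminescence read after 1 h detection; data normalized to DMSO and reference antagonist, IC50 from 3- or 4-parameter Hill fit.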

## NS(=O)(=O)N1CCC(CNc2nc(Cl)cc3nc(C(F)(F)F)cn23)(c2ccccc2)CC1 [Example 5, 4-(((7-Chloro-2-(trifluoromethyl)imidazo[1,2-c]pyrimidin-5-yl)amino)methyl)-4-phenylpiperidine-1-sulfonamide]
MRGPRX2 [1]
  pIC50: 7.00 to 10.00
MRGPRX2 [2]
  pIC50: 7.00 to 10.00

## Cc1cc(NCC2(c3ccccc3)CCN(C(N)=O)CC2)n2nc(C(F)(F)F)nc2n1 [Example 7, 4-(((5-Methyl-2-(trifluoromethyl)-[1,2,4]triazolo[1,5-a]pyrimidin-7-yl)amino)methyl)-4-phenylpiperidine-1-carboxamide]
MRGPRX2 [1]
  pIC50: 7.00 to 10.00
MRGPRX2 [2]
  pIC50: 6.00 to 7.00

## NC(=O)N1CC(CNc2cc(C(F)(F)F)nc3cc(C(F)(F)F)nn23)(n2cc(F)cn2)C1 [Example 10, 3-(((2,5-Bis(trifluoromethyl)pyrazolo[1,5-a]pyrimidin-7-yl)amino)methyl)-3-(4-fluoro-1H-pyrazol-1-yl)azetidine-1-carboxamide]
MRGPRX2 [1]
  pIC50: 7.00 to 10.00
MRGPRX2 [2]
  pIC50: 7.00 to 10.00

## NS(=O)(=O)N1CC(CNc2cccc3nc(C(F)(F)F)nn23)(n2cc(F)cn2)C1 [Example 11, 3-(4-Fluoro-1H-pyrazol-1-yl)-3-(((2-(trifluoromethyl)-[1,2,4]triazolo[1,5-a]pyridin-5-yl)amino)methyl)azetidine-1-sulfonamide]
MRGPRX2 [1]
  pIC50: 7.00 to 10.00
MRGPRX2 [2]
  pIC50: 7.00 to 10.00

## NC(=O)N1CC(CNc2cccc3nc(C(F)(F)F)nn23)(n2cc(F)cn2)C1 [Example 12, 3-(4-Fluoro-1H-pyrazol-1-yl)-3-(((2-(trifluoromethyl)-[1,2,4]triazolo[1,5-a]pyridin-5-yl)amino)methyl)azetidine-1-carboxamide]
MRGPRX2 [1]
  pIC50: 7.00 to 10.00
MRGPRX2 [2]
  pIC50: 6.00 to 7.00

## CNC(=O)N1CCC(CNc2cccc3nc(C(F)(F)F)nn23)(c2ccccc2)CC1 [Example 13, N-Methyl-4-phenyl-4-(((2-(trifluoromethyl)-[1,2,4]triazolo[1,5-a]pyridin-5-yl)amino)methyl)piperidine-1-carboxamide]
MRGPRX2 [1]
  pIC50: 7.00 to 10.00
MRGPRX2 [2]
  pIC50: 7.00 to 10.00

## COC(=O)N1CCC(CNc2cc(C(F)(F)F)nc3cc(C(F)(F)F)nn23)(c2ccccc2)CC1 [Example 14, Methyl 4-(((2,5-bis(trifluoromethyl)pyrazolo[1,5-a]pyrimidin-7-yl)amino)methyl)-4-phenylpiperidine-1-carboxylate]
MRGPRX2 [1]
  pIC50: 7.00 to 10.00
MRGPRX2 [2]
  pIC50: 6.00 to 7.00

## CNC(=O)N1CCC(CNc2cc(C(F)(F)F)nc3cc(C(F)(F)F)nn23)(c2ccccc2)CC1 [Example 15, 4-(((2,5-Bis(trifluoromethyl)pyrazolo[1,5-a]pyrimidin-7-yl)amino)methyl)-N-methyl-4-phenylpiperidine-1-carboxamide]
MRGPRX2 [1]
  pIC50: 7.00 to 10.00
MRGPRX2 [2]
  pIC50: 7.00 to 10.00

## NC(=O)N1CCC(CNc2cc(C(F)(F)F)nc3cc(C(F)(F)F)nn23)(c2ccccc2)CC1 [Example 16, 4-(((2,5-Bis(trifluoromethyl)pyrazolo[1,5-a]pyrimidin-7-yl)amino)methyl)-4-phenylpiperidine-1-carboxamide]
MRGPRX2 [1]
  pIC50: 7.00 to 10.00
MRGPRX2 [2]
  pIC50: 7.00 to 10.00

## CN1CCC(CNc2cc(C(F)(F)F)nc3cc(C(F)(F)F)nn23)(c2ccccc2)CC1 [Example 17, N-((1-Methyl-4-phenylpiperidin-4-yl)methyl)-2,5-bis(trifluoromethyl)pyrazolo[1,5-a]pyrimidin-7-amine]
MRGPRX2 [1]
  pIC50: 7.00 to 10.00
MRGPRX2 [2]
  pIC50: 7.00 to 10.00

## O=C(N1CCC(CNc2cccc3nc(C(F)(F)F)cn23)(c2ccccc2)CC1)N1CC(F)(F)C1 [Example 19, (3,3-Difluoroazetidin-1-yl)(4-phenyl-4-(((2-(trifluoromethyl)imidazo[1,2-a]pyridin-5-yl)amino)methyl)piperidin-1-yl)methanone]
MRGPRX2 [1]
  pIC50: 7.00 to 10.00
MRGPRX2 [2]
  pIC50: 7.00 to 10.00

## NC(=O)N1CCC(CNc2cc(C(F)(F)F)nc3cc(Br)nn23)(c2ccc(F)cn2)CC1 [Example 22, 4-(((2-Bromo-5-(trifluoromethyl)pyrazolo[1,5-a]pyrimidin-7-yl)amino)methyl)-4-(5-fluoropyridin-2-yl)piperidine-1-carboxamide]
MRGPRX2 [1]
  pIC50: 7.00 to 10.00
MRGPRX2 [2]
  pIC50: 7.00 to 10.00

## OCCN1CCC(CNc2cccc3nc(C(F)(F)F)cn23)(c2ccc(F)cn2)CC1 [Example 23, 2-(4-(5-Fluoropyridin-2-yl)-4-(((2-(trifluoromethyl)imidazo[1,2-a]pyridin-5-yl)amino)methyl)piperidin-1-yl)ethan-1-ol]
MRGPRX2 [1]
  pIC50: 6.00 to 7.00
MRGPRX2 [2]
  pIC50: 6.00 to 7.00

## N#CCC(=O)N1CCC(CNc2cccc3nc(C(F)(F)F)cn23)(c2ccc(F)cn2)CC1 [Example 24, 3-(4-(5-Fluoropyridin-2-yl)-4-(((2-(trifluoromethyl)imidazo[1,2-a]pyridin-5-yl)amino)methyl)piperidin-1-yl)-3-oxopropanenitrile]
MRGPRX2 [1]
  pIC50: 7.00 to 10.00
MRGPRX2 [2]
  pIC50: 6.00 to 7.00

## CNC(=O)N1CCC(CNc2cccc3nc(C(F)(F)C(F)(F)F)cn23)(c2ccccc2)CC1 [Example 26, N-Methyl-4-(((2-(perfluoroethyl)imidazo[1,2-a]pyridin-5-yl)amino)methyl)-4-phenylpiperidine-1-carboxamide]
MRGPRX2 [1]
  pIC50: 7.00 to 10.00
MRGPRX2 [2]
  pIC50: 7.00 to 10.00

## CN1CC[C@@H]1C(=O)N1CCC(CNc2cc(C(F)(F)F)nc3cc(C(F)(F)F)nn23)(c2ccc(F)cc2)CC1 [Example 50, (R)-(4-(((2,5-Bis(trifluoromethyl)pyrazolo[1,5-a]pyrimidin-7-yl)amino)methyl)-4-(4-fluorophenyl)piperidin-1-yl)(1-methylazetidin-2-yl)methanone]
MRGPRX2 [1]
  pIC50: 7.00 to 10.00
MRGPRX2 [3]
  pIC50: 7.00 to 10.00

## O=C(CN1CCC1)N1CCC(CNc2cc(C(F)(F)F)nc3cc(Br)nn23)(c2ccc(F)cc2)CC1 [Example 60, 2-(Azetidin-1-yl)-1-(4-(((2-bromo-5-(trifluoromethyl)pyrazolo[1,5-a]pyrimidin-7-yl)amino)methyl)-4-(4-fluorophenyl)piperidin-1-yl)ethan-1-one]
MRGPRX2 [1]
  pIC50: 7.00 to 10.00
MRGPRX2 [3]
  pIC50: 7.00 to 10.00

## O=C(NC1CC1)N1CC(CNc2cc(C(F)(F)F)nc3cc(C(F)F)nn23)(c2ccc(F)cc2)C1 [Example 63, N-Cyclopropyl-3-(((2-(difluoromethyl)-5-(trifluoromethyl)pyrazolo[1,5-a]pyrimidin-7-yl)amino)methyl)-3-(4-fluorophenyl)azetidine-1-carboxamide]
MRGPRX2 [1]
  pIC50: 7.00 to 10.00
MRGPRX2 [3]
  pIC50: 7.00 to 10.00

## N#CCCNC1CCC(CNc2cc(C(F)(F)F)nc3cc(Br)nn23)(c2ccccc2)CC1 (centres unmarked) [Example 81, 3-((4-(((2-Bromo-5-(trifluoromethyl)pyrazolo[1,5-a]pyrimidin-7-yl)amino)methyl)-4-phenylcyclohexyl)amino)propanenitrile]
MRGPRX2 [1]
  pIC50: 7.00 to 10.00
MRGPRX2 [3]
  pIC50: 7.00 to 10.00

## FC(F)(F)c1cc(NCC2(c3ccccc3)CC=CC2)n2nc(Br)cc2n1 [Example 82, 2-Bromo-N-((1-phenylcyclopent-3-en-1-yl)methyl)-5-(trifluoromethyl)pyrazolo[1,5-a]pyrimidin-7-amine]
MRGPRX2 [1]
  pIC50: 7.00 to 10.00
MRGPRX2 [3]
  pIC50: 7.00 to 10.00

## CNC1CCC(CNc2cc(C(F)(F)F)nc3cc(Br)nn23)(c2ccccc2)CC1 (centres unmarked) [Example 83, 2-Bromo-N-((4-(methylamino)-1-phenylcyclohexyl)methyl)-5-(trifluoromethyl)pyrazolo[1,5-a]pyrimidin-7-amine]
MRGPRX2 [1]
  pIC50: 7.00 to 10.00
MRGPRX2 [3]
  pIC50: 7.00 to 10.00

## CC(=O)N(C)C1CCC(CNc2cc(C(F)(F)F)nc3cc(Br)nn23)(c2ccccc2)CC1 (centres unmarked) [Example 85, N-(4-(((2-Bromo-5-(trifluoromethyl)pyrazolo[1,5-a]pyrimidin-7-yl)amino)methyl)-4-phenylcyclohexyl)-N-methylacetamide]
MRGPRX2 [1]
  pIC50: 7.00 to 10.00
MRGPRX2 [3]
  pIC50: 7.00 to 10.00
